Measured values: patent US10696693B2, “Fused imidazole derivatives as TGF-beta inhibitors” (Rigel Pharmaceuticals, Inc., priority 2014, dated 2020)
Like-named read-outs stand apart in the source and are kept apart here.

Tests used:
GDF8 = experiment: AlphaScreen SureFire p-SMAD3 (Ser423/425) assay, GDF8-stimulated cells; format: cell-based; settings: Mus musculus
In short: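 A SureFire AlphaScreen assay measured phosphorylation of endogenous SMAD-3 at Ser423/425 in cell lysates. Cells were treated with three-fold serially diluted compounds in DMSO for about 10 minutes, then stimulated with GDF8. After medium removal, cells were lysed in 1× Lysis Buffer (about 25 μL) with gentle shaking for 5-10 minutes.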

TGF-β = experiment: AlphaScreen SureFire p-SMAD3 (Ser423/425) assay, TGF-β-stimulated cells; format: cell-based; settings: Mus musculus
In short: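 The p-SMAD-3 (Ser423/425) SureFire assay measured phosphorylation of endogenous SMAD-3 in cell lysates. Cells were plated overnight in collagen-coated plates, exposed to three-fold serially diluted compounds for about 10 minutes, then stimulated with TGFβ. Lysates (5 μL) received acceptor bead mix for 2 hours, then donor beads for 1½ hours before AlphaScreen reading.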

[1] = MPC-11, p-SMAD3 (Ser423/425) AlphaScreen in cell lysate, MPC11, GDF8 stimulation, read-out: GDF8: inhibition of GDF8 signaling, GDF pSMAD (MPC11)
[2] = p-SMAD3 (Ser423/425) AlphaScreen in cell lysate, MPC-11, TGF-β stimulation, read-out: TGF-β: inhibition of TGF-β signaling, TGF-β pSMAD (MPC-11)
[3] = MPC-11, read-out: GDF8: inhibition of GDF8 signaling, GDF pSMAD (MPC11), p-SMAD3 (Ser423/425) AlphaScreen in cell lysate, GDF8 stimulation
[4] = MPC-11, read-out: TGF-β: inhibition of TGF-β signaling, TGF-β pSMAD (MPC-11), p-SMAD3 (Ser423/425) AlphaScreen in cell lysate, TGF-β stimulation

SMILES | IC50 (GDF8; [1]) | IC50 (TGF-β; [2]) | IC50 (GDF8; [3]) | IC50 (TGF-β; [4])
Cc1ccc(-c2nc3n(c2-c2ccc4[nH]ncc4c2)CCC3)c(F)c1F [Compound 248, 5-(2-(2,3-difluoro-4-methylphenyl)-6,7-dihydro-5H-pyrrolo[1,2-a]imidazol-3-yl)-1H-indazole] | > 1000 nM | > 1000 nM | – | –
Cc1cc(F)c(F)cc1-c1nc2n(c1-c1ccc3nccn3c1)CCC2 [Compound 32] | 100 to 1000 nM | > 1000 nM | – | –
Clc1ccc(Cl)c(-c2nc3n(c2-c2ccc4nccn4c2)CCC3)c1 [Compound 93, 6-(2-(2,5-dichlorophenyl)-6,7-dihydro-5H-pyrrolo[1,2-a]imidazol-3-yl)imidazo[1,2-a]pyridine] | – | – | < 50 nM | 50 to 100 nM
N#Cc1cnc2ccc(-c3c(-c4ccc(F)c(Cl)c4)nc4n3CCC4)cn12 [Compound 61, 6-(2-(3-chloro-4-fluorophenyl)-6,7-dihydro-5H-pyrrolo[1,2-a]imidazol-3-yl)imidazo[1,2-a]pyridine-3-carbonitrile] | 100 to 1000 nM | 100 to 1000 nM | – | –
CCOC(=O)C1CCC2(CC1)Cc1nc(-c3ccc(F)cc3)c(-c3ccc4nccnc4c3)n1C2 (stereo not shown) [Compound 333, Ethyl 2′-(4-fluorophenyl)-3′-(quinoxalin-6-yl)-5′H,7′H-spiro[cyclohexane-1,6′-pyrrolo[1,2-a]imidazole]-4-carboxylate] | – | – | > 1000 nM | > 1000 nM
Fc1cc(F)c(F)c(-c2nc3n(c2-c2cc4cnccc4s2)CCN3)c1 [Compound 112, 2-(6-(2,3,5-trifluorophenyl)-2,3-dihydro-1H-imidazo[1,2-a]imidazol-5-yl)thieno[3,2-c]pyridine] | < 50 nM | < 50 nM | – | –
Fc1cc(F)c(F)c(-c2nc3n(c2-c2ccc4ncccc4c2)CCCN3)c1 [Compound 165, 6-(2-(2,3,5-trifluorophenyl)-5,6,7,8-tetrahydroimidazo[1,2-a]pyrimidin-3-yl)quinoline] | > 1000 nM | 100 to 1000 nM | – | –
Fc1cc(F)c(-c2nc3n(c2-c2ccc4nnc(C(F)(F)F)n4c2)CCC3)cc1F [Compound 34, 3-(trifluoromethyl)-6-(2-(2,4,5-trifluorophenyl)-6,7-dihydro-5H-pyrrolo[1,2-c]imidazol-3-yl)-[1,2,4]triazolo[4,3-c]pyridine] | > 1000 nM | > 1000 nM | – | –
Fc1ccc(Cl)cc1-c1nc2n(c1-c1ccc3ncccc3c1)CCC2 [Compound 338, 6-(2-(5-chloro-2-fluoropheny)-6,7-dihydro-5H-pyrrolo[1,2-a]imidazol-3-yl)quinoline] | < 50 nM | < 50 nM | – | –
Fc1ccc(-c2nc3n(c2-c2ccc4[nH]ncc4c2)CC2(CCCC2)C3)cc1 [Compound 324, 2′-(4-fluorophenyl)-3′-(1H-indazol-5-yl)-5′H,7′H-spiro[cyclopentane-1,6′-pyrrolo[1,2-a]imidazole]] | – | – | > 1000 nM | > 1000 nM
Fc1cc(F)c(-c2nc3n(c2-c2cc4cnccc4s2)CCC3)cc1F [Compound 99, 2-(2-(2,4,5-trifluorophenyl)-6,7-dihydro-5H-pyrrolo[1,2-a]imidazol-3-yl)thieno[3,2-c]pyridine] | 50 to 100 nM | 100 to 1000 nM | – | –
OCC1Cn2c(nc(-c3cc(F)cc(F)c3F)c2-c2ccc3nccnc3c2)N1 (stereo not shown) [Compound 124, (5-(quinoxalin-6-yl)-6-(2,3,5-trifluorophenyl)-2,3-dihydro-1H-imidazo[1,2-a]imidazol-2-yl)methanol] | 100 to 1000 nM | 100 to 1000 nM | – | –
CN(C)CCOc1cnc2ccc(-c3c(-c4cc(F)c(F)cc4F)nc4n3CCN4)cc2n1 [Compound 120, N,N-dimethyl-2-((7-(6-(2,4,5-trifluorophenyl)-2,3-dihydro-1H-imidazo[1,2-a]imidazol-5-yl)quinoxalin-2-yl)oxy)ethan-1-amine] | < 50 nM | < 50 nM | – | –
COc1cccc(-c2nc3n(c2-c2ccc4ncsc4c2)CCC3)c1 [Compound 187, 6-(2-(3-methoxyphenyl)-6,7-dihydro-5H-pyrrolo[1,2-a]imidazol-3-yl)benzo[d]thiazole] | – | – | 50 to 100 nM | 100 to 1000 nM
CC(C)c1nnc2ccc(-c3c(-c4ccc(F)c(F)c4F)nc4n3CCC4)cn12 [Compound 23, 3-isopropyl-6-(2-(2,3,4-trifluorophenyl)-6,7-dihydro-5H-pyrrolo[1,2-a]imidazol-3-yl)-[1,2,4]triazolo[4,3-a]pyridine] | > 1000 nM | > 1000 nM | – | –
O=C(O)C1CCC2(CC1)Cc1nc(-c3ccc(F)cc3)c(-c3ccc4nccnc4c3)n1C2 (stereo not shown) [Compound 334, 2′-(4-fluorophenyl)-3′-(quinoxalin-6-yl)-5′H,7′H-spiro[cyclohexane-1,6′-pyrrolo[1,2-a]imidazole]-4-carboxylic acid] | – | – | > 1000 nM | > 1000 nM

SMILES | IC50 (GDF8; [1]) | IC50 (TGF-β; [2]) | IC50 (GDF8; [3]) | IC50 (TGF-β; [4])
Cc1cc(-c2nc3n(c2-c2ccc4ncsc4c2)CCC3)ccc1F [Compound 173, 6-(2-(4-fluoro-3-methylphenyl)-6,7-dihydro-5H-pyrrolo[1,2-a]imidazol-3-yl)benzo[d]thiazole] | < 50 nM | 50 to 100 nM | – | –
Fc1cc(F)c(-c2nc3n(c2-c2cc4cnccc4s2)CCN3)cc1F [Compound 116, 2-(6-(2,4,5-trifluorophenyl)-2,3-dihydro-1H-imidazo[1,2-a]imidazol-5-yl)thieno[3,2-c]pyridine] | < 50 nM | < 50 nM | – | –
Fc1cc(-c2nc3n(c2-c2ccc4ncsc4c2)CCC3)cc(F)c1F [Compound 229, 6-(2-(3,4,5-trifluorophenyl)-6,7-dihydro-5H-pyrrolo[1,2-a]imidazol-3-yl)benzo[d]thiazole] | – | – | 100 to 1000 nM | > 1000 nM
Cc1cc(-c2nc3n(c2-c2ccc4ncsc4c2)CCC3)c(F)cc1F [Compound 269, 6-(2-(2,4-difluoro-5-methylphenyl)-6,7-dihydro-5H-pyrrolo[1,2-a]imidaozl-3-yl)benzo[d]thiazole] | < 50 nM | 50 to 100 nM | – | –
Cc1cc(-c2nc3n(c2-c2ccc4nccn4c2)CCC3)c(F)cc1F [Compound 39, 6-(2-(2,4-difluoro-5-methylphenyl)-6,7-dihydro-5H-pyrrolo[1,2-a]imidazol-3-yl)imidazo[1,2-c]pyridine] | < 50 nM | 50 to 100 nM | – | –
Nc1ncnc2ccc(-c3c(-c4ccc(F)c(Cl)c4)nc4n3CCC4)cc12 [Compound 347, 6-(2-(3-chloro-4-fluorophenyl)-6,7-dihydro-5H-pyrrolo[1,2-a]imidazol-3-yl)quinazolin-4-amine] | 50 to 100 nM | 50 to 100 nM | – | –
Clc1cccc(-c2nc3n(c2-c2ccc4nccnc4c2)CCC3)c1 [Compound 192, 6-(2-(3-chlorophenyl)-6,7-dihydro-5H-pyrrolo[1,2-a]imidazol-3-yl)quinoxaline] | – | – | 50 to 100 nM | 100 to 1000 nM
Fc1ccc(F)c(-c2nc3n(c2-c2ccc4[nH]ncc4c2)CCC3)c1F [Compound 221, 5-(2-(2,3,6-trifluorophenyl)-6,7-dihydro-5H-pyrrolo[1,2-a]imidazol-3-yl)-1H-indazole] | 100 to 1000 nM | > 1000 nM | – | –
Cc1c(F)ccc(-c2nc3n(c2-c2ccc4ncsc4c2)CCC3)c1Cl [Compound 313, 6-(2-(2-chloro-4-fluoro-3-methylphenyl)-6,7-dihydro-5H-pyrrolo[1,2-a]imidazol-3-yl)benzo[d]thiazole] | – | – | 100 to 1000 nM | 100 to 1000 nM
Fc1ccc(-c2nc3n(c2-c2ccc4[nH]ncc4c2)CCC3)cc1 [Compound 175, 5-(2-(4-fluorophenyl)-6,7-dihydro-5H-pyrrolo[1,2-a]imidazol-3-yl)-1H-indazole] | – | – | 100 to 1000 nM | 100 to 1000 nM
Fc1cc(Cl)c(-c2nc3n(c2-c2ccc4ncccc4c2)CCC3)cc1F [Compound 290, 6-(2-(2-chloro-4,5-difluorophenyl)-6,7-dihydro-5H-pyrrolo[1,2-a]imidazol-3-yl)quinoline] | 100 to 1000 nM | > 1000 nM | – | –
COc1cccc(-c2nc3n(c2-c2ccc4nccn4c2)CCC3)c1 [Compound 5] | 100 to 1000 nM | 100 to 1000 nM | – | –
Fc1ccc(F)c(-c2nc3n(c2-c2ccc4ncsc4c2)CCC3)c1F [Compound 222, 6-(2-(2,3,6-trifluorophenyl)-6,7-dihydro-5H-pyrrolo[1,2-a]imidazol-3-yl)benzo[d]thiazole] | 100 to 1000 nM | 100 to 1000 nM | – | –
COc1cccc(-c2nc3n(c2-c2ccc4nccnc4c2)CCC3)c1 [Compound 188, 6-(2-(3-methoxyphenyl)-6,7-dihydro-5H-pyrrolo[1,2-a]imidazol-3-yl)quinoxaline] | – | – | 100 to 1000 nM | 100 to 1000 nM
CN(C)C(=O)C1CCC2(CC1)Cc1nc(-c3ccc(F)cc3)c(-c3ccc4ncnn4c3)n1C2 (stereo not shown) [Compound 79, 3′-([1,2,4]triazolo[1,5-a]pyridin-6-yl)-2′-(4-fluorophenyl)-N,N-dimethyl-5′H,7′H-spiro[cyclohexane-1,6′-pyrrolo[1,2-a]imidazole]-4-carboxamide] | – | – | > 1000 nM | > 1000 nM
Cc1cc(F)c(-c2nc3n(c2-c2ccc4ncsc4c2)CCC3)cc1F [Compound 285, 6-(2-(2,5-difluoro-4-methylphenyl)-6,7-dihydro-5H-pyrrolo[1,2-a]imidazol-3-yl)benzo[d]thiazole] | > 1000 nM | > 1000 nM | – | –
